44 compounds from BindingDB's records for doi:10.7270/Q2DF6PMF (Nmmlsc, 2007) can be followed below.

In general, IC50 refers to the concentration needed to halve the response being measured. For orientation: Ki means the dissociation constant of the complex between target and ligand, obtained from inhibition or displacement. Read a high Ki as a looser hold on the target.

Each structure is given as a SMILES string. Structures can show the parent of a compound that is named as a salt.

For the first test, the target named is T1, N-formyl peptide receptor 2 (Homo sapiens, UniProt P25090).
T1 sequence (P25090 whole entry): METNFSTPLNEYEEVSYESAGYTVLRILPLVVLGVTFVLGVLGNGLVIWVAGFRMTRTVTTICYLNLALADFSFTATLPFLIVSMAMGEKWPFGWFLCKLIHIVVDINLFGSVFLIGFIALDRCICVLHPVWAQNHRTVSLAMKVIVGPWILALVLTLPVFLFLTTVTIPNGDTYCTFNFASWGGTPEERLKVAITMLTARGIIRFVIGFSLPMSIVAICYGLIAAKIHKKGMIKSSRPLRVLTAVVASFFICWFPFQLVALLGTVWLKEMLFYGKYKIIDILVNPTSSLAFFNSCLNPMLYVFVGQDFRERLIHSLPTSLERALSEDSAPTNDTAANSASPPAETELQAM
Put plainly: concentration-dependent FPRL1 ligand displacement – cell-based, FPR counter-screen, fluorescent ligand, dose response (AID 520).
Details: not given
(A counterscreen serves to expose hits that act by an unwanted route or on another target.)
`COCc1cc(C2C(C(=O)c3ccco3)C(=O)C(=O)N2CCOCCO)ccc1O` (stereo unspecified) [3-(furan-2-carbonyl)-4-hydroxy-1-[2-(2-hydroxyethoxy)ethyl]-2-[4-hydroxy-3-(methoxymethyl)phenyl]-2H-pyrrol-5-one] showed an IC50 above 66.7 µM and a Ki above 40.3 µM.
The compound `C=CCOc1ccc(C2C(C(=O)c3ccco3)C(=O)C(=O)N2Cc2cccnc2)cc1` (stereo unspecified) [3-(furan-2-carbonyl)-4-hydroxy-2-(4-prop-2-enoxyphenyl)-1-(pyridin-3-ylmethyl)-2H-pyrrol-5-one] returned an IC50 above 66.7 µM and a Ki above 40.3 µM.
For `Cc1cccc(-n2nc3c(c2NC(=O)c2ccco2)CSC3)c1C` [MLS000095654], the IC50 was above 66.7 µM.
Same read-out and setting: for `COc1ccc(NC(=O)C(c2ccc(C)cc2)N(C)C(=O)c2cnccn2)cc1` (stereo unspecified) [MLS000044155] the value was above 66.7 µM; for `CCCN=C(S)Nc1ccc(Nc2ccccc2)cc1` [1-(4-anilinophenyl)-3-propyl-thiourea], above 66.7 µM.
As to `COC(=O)Cc1n[nH]c2c1C(C1C=CCCC1)C(C#N)C(=N)O2` (stereo unspecified) [2-[6-amino-5-cyano-4-(1-cyclohex-2-enyl)-2,4-dihydropyrano[2,3-c]pyrazol-3-yl]acetic acid methyl ester], the IC50 is above 66.7 µM and the Ki is above 40.3 µM.
The compound `COc1ccc(CN(C(=O)c2ccccc2OC)C2CCS(=O)(=O)C2)cc1` (stereo unspecified) [MLS000041347] returned an IC50 above 66.7 µM.
For `COCCCN1C(=O)C(=O)C(C(=O)c2ccc(OC)cc2C)C1c1cccnc1` (stereo unspecified) [(4E)-4-[(4-methoxy-2-methyl-phenyl)-oxidanyl-methylidene]-1-(3-methoxypropyl)-5-pyridin-3-yl-pyrrolidine-2,3-dione], the IC50 is above 66.7 µM and the Ki is above 40.3 µM.
The compound `O=C(O)CC1Oc2ccc(Cl)cc2NC1=O` (stereo unspecified) [2-(6-chloranyl-3-oxidanylidene-4H-1,4-benzoxazin-2-yl)ethanoic acid] showed an IC50 above 66.7 µM.
In turn, `COc1ccc2nc(Nc3nc(C)c(C(C)=O)s3)sc2c1` [1-[2-[(6-methoxy-1,3-benzothiazol-2-yl)amino]-4-methyl-1,3-thiazol-5-yl]ethanone] registered a concentration for half-maximal inhibition (IC50) above 66.7 µM.
Same read-out and setting: for `CCOC(=O)Cc1cc(=O)n2[nH]c(C)c(-c3ccc(OC)cc3)c2n1` the value was above 66.7 µM.
With `O=c1c(CC[S+]([O-])c2ccccc2)c(O)n(-c2ccccc2)n1-c1ccccc1` (stereo unspecified) [1,2-Diphenyl-3,5-dioxo-4-(2-phenylsulfinylethyl)pyrazolidine], the 50% inhibitory concentration (IC50) is above 66.7 µM and the Ki was above 40.3 µM.
`CN(C)c1nc(N(C)C)nc(N(C)C)n1` [ALTRETAMINE] registered an IC50 above 66.7 µM.
`COC(=O)c1[nH]c(C)c(C(=O)C2C(=O)C(=O)N(CCN3CCOCC3)C2c2cccs2)c1C` (stereo unspecified) registered an IC50 above 66.7 µM and a Ki above 40.3 µM.
The corresponding values for `Cc1ccc(C)c(C(=O)C2C(=O)C(=O)N(CCCn3ccnc3)C2c2ccncc2)c1` (stereo unspecified) [(4E)-4-[(2,5-dimethylphenyl)-hydroxy-methylene]-1-(3-imidazol-1-ylpropyl)-5-(4-pyridyl)pyrrolidine-2,3-quinone] are above 66.7 µM and above 40.3 µM.
`O=c1cc(N2CCc3ccccc32)[nH]c(=O)n1Cc1ccc(F)cc1` [MLS000045863] had an IC50 above 66.7 µM.
In turn, `CCOc1ccc(C(=O)C2C(=O)C(=O)N(CC3CCCO3)C2c2ccco2)cc1` (stereo unspecified) [(4Z)-4-[(4-ethoxyphenyl)-hydroxymethylidene]-5-(2-furanyl)-1-(2-oxolanylmethyl)pyrrolidine-2,3-dione] gave an IC50 above 66.7 µM and a Ki above 40.3 µM.
For the compound `C=CCN1C(=O)C2(c3ccccc31)C(C(=O)c1ccc3c(c1)OCCO3)C(=O)C(=O)N2CCCOC` (stereo unspecified) [(4'E)-1-allyl-4'-[2,3-dihydro-1,4-benzodioxin-6-yl(hydroxy)methylene]-1'-(3-methoxypropyl)spiro[indoline-3,5'-pyrrolidine]-2,2',3'-trione], the IC50 was above 66.7 µM and the Ki is above 40.3 µM.
Turning to `Cc1ccc(Nc2ccc(C(=O)O)cc2N)cc1` [3-amino-4-(4-methylanilino)benzoic acid], the IC50 was above 66.7 µM.
Same read-out and setting: with `CCOC(=O)Cc1cc(=O)n2[nH]c(C)c(-c3ccccc3)c2n1` the figure was above 66.7 µM; with `COc1ccc(OC)c(C(=O)c2nc3c(n2O)CCCCC3)c1` [(2,5-dimethoxyphenyl)-(3-hydroxy-5,6,7,8-tetrahydro-4H-cyclohept[d]imidazol-2-yl)methanone], above 66.7 µM.
The same measure, in the same setting: with `COC(=O)COc1ccc2c(=O)c(Oc3ccccc3)c(C)oc2c1` [2-(4-keto-2-methyl-3-phenoxy-chromen-7-yl)oxyacetic acid methyl ester] the figure was above 66.7 µM.
Compound `CCOC(=O)c1ccc(NC(=O)Nc2ccc3c4c(cccc24)C(=O)N3CC)cc1` [4-[(1-ethyl-2-keto-benzo[cd]indol-6-yl)carbamoylamino]benzoic acid ethyl ester] yielded an IC50 above 66.7 µM.
Same read-out and setting: with `Cc1ccccc1Nc1cc2ccccc2c(O)n1` [3-[(2-methylphenyl)amino]-2H-isoquinolin-1-one] the figure was above 66.7 µM.
The same measure, in the same setting: with `COc1ccc(S(=O)(=O)NC(C)C(=O)Nc2cccc(C(C)=O)c2)cc1` (stereo unspecified) [MLS000051414] the figure was above 66.7 µM.
Consider `CCOc1ccc(C(=O)C2C(=O)C(=O)N(CC3CCCO3)C2c2ccc(C)o2)cc1` (stereo unspecified) [(4Z)-4-[(4-ethoxyphenyl)-hydroxymethylidene]-5-(5-methyl-2-furanyl)-1-(2-oxolanylmethyl)pyrrolidine-2,3-dione], for which the IC50 is above 66.7 µM and the Ki was above 40.3 µM.
Compound `CC1CCN(S(=O)(=O)c2ccc3c(c2)oc(=O)n3CC(=O)NCc2ccc3c(c2)OCO3)CC1` [2-[2-keto-6-(4-methylpiperidino)sulfonyl-1,3-benzoxazol-3-yl]-N-piperonyl-acetamide] yielded an IC50 above 66.7 µM.
Turning to `O=C1C(=O)N(Cc2ccccc2)C(c2ccncc2)C1C(=O)c1ccco1` (stereo unspecified) [1-Benzyl-4-(furan-2-carbonyl)-3-hydroxy-5-pyridin-4-yl-1,5-dihydro-pyrrol-2-one], the IC50 is above 66.7 µM and the Ki is above 40.3 µM.
For `Cc1nc2c(C#N)c[nH]n2c(=O)c1Cc1ccccc1` [5-methyl-7-oxo-6-(phenylmethyl)-1H-pyrazolo[1,5-a]pyrimidine-3-carbonitrile], the IC50 was above 66.7 µM.
Consider `COc1ccc(CCN2C(=O)C(=O)C(C(=O)c3ccco3)C2c2cccs2)cc1OC` (stereo unspecified) [1-[2-(3,4-Dimethoxy-phenyl)-ethyl]-4-(furan-2-carbonyl)-3-hydroxy-5-thiophen-2-yl-1,5-dihydro-pyrrol-2-one], for which the IC50 is above 66.7 µM and the Ki is above 40.3 µM.
In turn, `C=CCn1c(SCCCC)nc(O)cc1=O` [1-allyl-2-(butylthio)-6-hydroxy-pyrimidin-4-one] yielded an IC50 above 66.7 µM.
On the same count and under the same terms, for `CCc1nnc(NC(=O)CSc2nnc(-c3cc4ccccc4cc3O)n2CC)s1` [2-[4-Ethyl-5-(3-hydroxy-naphthalen-2-yl)-4H-[1,2,4]triazol-3-ylsulfanyl]-N-(5-ethyl-[1,3,4]thiadiazol-2-yl)-acetamide] the value was above 66.7 µM.
`O=C(NC1CCCC1)c1sc(=S)n2c1[nH]c(=O)c1ccccc12` registered an IC50 above 66.7 µM.
The compound `Cc1ccc(C(=O)C2C(=O)C(=O)N(CCCn3ccnc3)C2c2ccc(OC(C)C)cc2)o1` (stereo unspecified) [1-(3-imidazol-1-ylpropyl)-3-(5-methylfuran-2-yl)carbonyl-4-oxidanyl-2-(4-propan-2-yloxyphenyl)-2H-pyrrol-5-one] had a 50% inhibitory concentration (IC50) above 66.7 µM and a Ki above 40.3 µM.
On to `CC(C)(C)CC(=O)Nc1ccc(Nc2ccccc2)cc1` [3,3-dimethyl-N-(4-phenylazanylphenyl)butanamide], for which the IC50 was above 66.7 µM.
In turn, `Cc1ccsc1C1C2C(=O)CC(C)(C)CC2=Nc2ncnn21` (stereo unspecified) [6,6-dimethyl-9-(3-methyl-2-thienyl)-1,5,7,9-tetrahydro-[1,2,4]triazolo[5,1-b]quinazolin-8-one] returned an IC50 above 66.7 µM and a Ki above 40.3 µM.
Turning to `CCN(CCCc1ccccc1)CCCc1ccccc1` [ALVERINE CITRATE SALT], the IC50 is above 66.7 µM.
In turn, `CC1Cc2cc(C(=O)C3C(=O)C(=O)N(CCN4CCOCC4)C3c3ccccc3F)ccc2O1` (stereo unspecified) [(4E)-5-(2-fluorophenyl)-4-[(2-methyl-2,3-dihydro-1-benzofuran-5-yl)-oxidanyl-methylidene]-1-(2-morpholin-4-ylethyl)pyrrolidine-2,3-dione] returned an IC50 above 66.7 µM and a Ki above 40.3 µM.
`CCN1C(=O)/C(=C2\SC(=S)N(CCCOC)C2=O)c2ccccc21` [(5Z)-5-(1-ethyl-2-keto-indolin-3-ylidene)-3-(3-methoxypropyl)-2-thioxo-thiazolidin-4-one] yielded an IC50 above 66.7 µM.
Consider `O=C1C(=O)N(CCCN2CCOCC2)C(c2ccccn2)C1C(=O)c1cc2ccccc2o1` (stereo unspecified) [3-(1-benzofuran-2-carbonyl)-4-hydroxy-1-(3-morpholin-4-ylpropyl)-2-pyridin-2-yl-2H-pyrrol-5-one], for which the IC50 is above 66.7 µM and the Ki was above 40.3 µM.
On to `COc1ccccc1C1C(C(=O)c2ccccc2)C(=O)C(=O)N1CCO` (stereo unspecified) [(4Z)-1-(2-hydroxyethyl)-4-[hydroxy(phenyl)methylene]-5-(2-methoxyphenyl)pyrrolidine-2,3-quinone], for which the IC50 is above 66.7 µM and the Ki is above 40.3 µM.
The compound `CCCOc1ccc2c(=O)c(N3C(=O)c4ccccc4C3=O)c(C)oc2c1` [2-(2-methyl-4-oxidanylidene-7-propoxy-chromen-3-yl)isoindole-1,3-dione] gave an IC50 above 66.7 µM.

The test is the same for the next values; noted with them: inactive by the depositor's call.
Turning to `CCOC(=O)N1CCN(c2cc(NCCC(=O)O)c3c4c(onc24)-c2ccccc2C3=O)CC1` [MLS000086406], the half-inhibitory concentration (IC50) stood at 49.9 µM.
The same measure, in the same setting: with `CCCC(=O)Nc1cc(-c2cn3cccnc3n2)ccc1OC` [MLS000045942] the figure was 22.8 µM.
